The text below walks through data of publication doi:10.1101/504811v1 (biorxiv, 2018).

In this experiment the target is T1, MPH-wt (Pseudomonas sp. WBC-3, UniProt Q841S6).
T1 sequence (Q841S6 36-331): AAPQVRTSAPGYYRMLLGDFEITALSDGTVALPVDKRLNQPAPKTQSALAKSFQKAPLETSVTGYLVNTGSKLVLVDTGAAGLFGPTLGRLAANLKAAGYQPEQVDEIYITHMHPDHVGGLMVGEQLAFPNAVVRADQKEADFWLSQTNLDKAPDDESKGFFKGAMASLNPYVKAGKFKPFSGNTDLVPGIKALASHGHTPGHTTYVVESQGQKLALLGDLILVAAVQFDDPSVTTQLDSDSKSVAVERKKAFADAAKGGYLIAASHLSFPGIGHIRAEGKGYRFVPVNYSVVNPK
Nature of the experiment: hydrolysis kinetics, purified enzyme. The experiment is classed as biochemical.

Each structure is given as a SMILES string.

As for `O=C1CCc2ccccc2O1` [dihydrocoumarin], the KM result is on record as “only moderate DHCH activity”.
